# Results as given in US8846698B2, “Pyrrolo[2,3-d]pyrimidine tropomysin-related kinase inhibitors” (Pfizer Limited, priority 2011, dated 2014).
# Biological target: TRKA (Homo sapiens (Human), UniProt P04629)
# Assay: Isolated TRK enzyme assay (HTRF KinEASE-TK), TRKA
# Assay type: biochemical
# Settings: read-out: Trka enzyme (IC50)
# Chain of TRKA (P04629 441-796): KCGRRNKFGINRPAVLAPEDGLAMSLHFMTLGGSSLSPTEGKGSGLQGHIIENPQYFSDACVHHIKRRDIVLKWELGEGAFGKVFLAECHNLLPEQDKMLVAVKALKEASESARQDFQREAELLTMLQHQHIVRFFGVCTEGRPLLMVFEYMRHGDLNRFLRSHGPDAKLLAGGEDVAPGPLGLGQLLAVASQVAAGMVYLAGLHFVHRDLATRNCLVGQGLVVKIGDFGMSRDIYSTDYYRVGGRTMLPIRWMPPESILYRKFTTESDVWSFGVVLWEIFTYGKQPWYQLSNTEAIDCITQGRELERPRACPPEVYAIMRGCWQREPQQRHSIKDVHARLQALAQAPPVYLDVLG
row,IC50 [µM],Compound
1,1.22,"CC(C)n1cc(C(=O)c2cncc(NC(=O)c3ncn4c3CCC4)c2)c2cncnc21 [Example 403, 6,7-Dihydro-5H-pyrrolo[1,2-c]imidazole-1-carboxylic acid [5-(7-isopropyl-7H-pyrrolo[2,3-d]pyrimidine-5-carbonyl)-pyridin-3-yl]-amide]"
2,0.118,"CC(C)n1cc(C(=O)c2cncc(NC(=O)c3cc4sccc4cn3)c2)c2cncnc21 [Example 404, Thieno[3,2-c]pyridine-6-carboxylic acid [5-(7-isopropyl-7H-pyrrolo[2,3-d]pyrimidine-5-carbonyl)-pyridin-3-yl]-amide]"
3,1.63,"CC(C)n1cc(C(=O)c2cncc(NC(=O)c3cn(C)nc3C(F)(F)F)c2)c2cncnc21 [Example 405, 1-Methyl-3-trifluoromethyl-1H-pyrazole-4-carboxylic acid [5-(7-isopropyl-7H-pyrrolo[2,3-d]pyrimidine-5-carbonyl)-pyridin-3-yl]-amide]"
4,2.64,"CC(C)n1cc(C(=O)c2cncc(NC(=O)c3ccn4cncc4c3)c2)c2cncnc21 [Example 406, Imidazo[1,5-a]pyridine-7-carboxylicacid [5-(7-isopropyl-7H-pyrrolo[2,3-d]pyrimidine-5-carbonyl)-pyridin-3-yl]-amide]"
5,2.6,"CC(C)n1cc(C(=O)c2cncc(NC(=O)c3ccnc4[nH]ccc34)c2)c2cncnc21 [Example 407, 1H-Pyrrolo[2,3-b]pyridine-4-carboxylic acid [5-(7-isopropyl-7H-pyrrolo[2,3-d]pyrimidine-5-carbonyl)-pyridin-3-yl]-amide]"
6,0.654,"CCc1cc(C(=O)Nc2cncc(C(=O)c3cn(C(C)C)c4ncncc34)c2)on1 [Example 408, 3-Ethyl-isoxazole-5-carboxylic acid[5-(7-isopropyl-7H-pyrrolo[2,3-d]pyrimidine-5-carbonyl)-pyridin-3-yl]-amide]"
7,0.0704,"COc1ccnc(C(=O)Nc2cncc(C(=O)c3cn(C(C)C)c4ncncc34)c2)c1 [Example 409, 4-Methoxy-pyridine-2-carboxylic acid [5-(7-isopropyl-7H-pyrrolo[2,3-d]pyrimidine-5-carbonyl)-pyridin-3-yl]-amide]"
8,9.8,"CC(C)n1cc(C(=O)c2cncc(NC(=O)c3cncnc3)c2)c2cncnc21 [Example 410, Pyrimidine-5-carboxylic acid [5-(7-isopropyl-7H-pyrrolo[2,3-d]pyrimidine-5-carbonyl)-pyridin-3-yl]-amide]"
9,9.8,"Cc1n[nH]cc1C(=O)Nc1cncc(C(=O)c2cn(C(C)C)c3ncncc23)c1 [Example 411, 3-Methyl-1H-pyrazole-4-carboxylic acid [5-(7-isopropyl-7H-pyrrolo[2,3-d]pyrimidine-5-carbonyl)-pyridin-3-yl]-amide]"
10,0.00518,"Cc1cnc2[nH]cc(C(=O)Nc3cncc(C(=O)c4cn(C(C)C)c5ncncc45)c3)c2c1 [Example 412, 5-Methyl-1H-pyrrolo[2,3-b]pyridine-3-carboxylic acid [5-(7-isopropyl-7H-pyrrolo[2,3-d]pyrimidine-5-carbonyl)-pyridin-3-yl]-amide]"
11,9.8,"Cc1cncnc1C(=O)Nc1cncc(C(=O)c2cn(C(C)C)c3ncncc23)c1 [Example 413, 5-Methyl-pyrimidine-4-carboxylic acid [5-(7-isopropyl-7H-pyrrolo[2,3-d]pyrimidine-5-carbonyl)-pyridin-3-yl]-amide]"
12,0.158,"CC(C)n1cc(C(=O)c2cncc(NC(=O)c3cnc4ccsc4c3)c2)c2cncnc21 [Example 414, Thieno[3,2-b]pyridine-6-carboxylic acid [5-(7-isopropyl-7H-pyrrolo[2,3-d]pyrimidine-5-carbonyl)-pyridin-3-yl]-amide]"
13,2.59,"CC(C)n1cc(C(=O)c2cncc(NC(=O)c3cnc4ccnn4c3)c2)c2cncnc21 [Example 415, Pyrazolo[1,5-a]pyrimidine-6-carboxylic acid [5-(7-isopropyl-7H-pyrrolo[2,3-d]pyrimidine-5-carbonyl)-pyridin-3-yl]-amide]"
14,0.052,"CC(C)n1cc(C(=O)c2cncc(NC(=O)c3noc4c3CCCC4)c2)c2cncnc21 [Example 416, 4,5,6,7-Tetrahydro-1,2-benzisoxazole-3-carboxylic acid [5-(7-isopropyl-7H-pyrrolo[2,3-d]pyrimidine-5-carbonyl)-pyridin-3-yl]-amide]"
15,0.0712,"CC(C)n1cc(C(=O)c2cncc(NC(=O)c3ncc4ccccn34)c2)c2cncnc21 [Example 417, Imidazo[1,5-a]pyridine-3-carboxylicacid [5-(7-isopropyl-7H-pyrrolo[2,3-d]pyrimidine-5-carbonyl)-pyridin-3-yl]-amide]"
16,0.0402,"CC(C)n1cc(C(=O)c2cncc(NC(=O)c3ccc4cc[nH]c4n3)c2)c2cncnc21 [Example 418, 1H-Pyrrolo[2,3-b]pyridine-6-carboxylic acid [5-(7-isopropyl-7H-pyrrolo[2,3-d]pyrimidine-5-carbonyl)-pyridin-3-yl]-amide]"
17,0.0151,"CC(C)n1cc(C(=O)c2cncc(NC(=O)c3n[nH]c4c3CCC4)c2)c2cncnc21 [Example 419, 1,4,5,6-Tetrahydro-cyclopentapyrazole-3-carboxylic acid [5-(7-isopropyl-7H-pyrrolo[2,3-d]pyrimidine-5-carbonyl)-pyridin-3-yl]-amide]"
18,9.8,"CC(C)n1cc(C(=O)c2cncc(NC(=O)c3cncnc3N)c2)c2cncnc21 [Example 420, 4-Amino-pyrimidine-5-carboxylic acid [5-(7-isopropyl-7H-pyrrolo[2,3-d]pyrimidine-5-carbonyl)-pyridin-3-yl]-amide]"
19,1.73,"CC(C)n1cc(C(=O)c2cncc(NC(=O)c3c[nH]c4cnccc34)c2)c2cncnc21 [Example 421, 1H-Pyrrolo[2,3-c]pyridine-3-carboxylic acid [5-(7-isopropyl-7H-pyrrolo[2,3-d]pyrimidine-5-carbonyl)-pyridin-3-yl]amide]"
20,0.451,"Cc1cc(C(=O)Nc2cncc(C(=O)c3cn(C(C)C)c4ncncc34)c2)ccn1 [Example 422, N-[5-(7-Isopropyl-7H-pyrrolo[2,3-d]pyrimidine-5-carbonyl)-pyridin-3-yl]-2-methyl-isonicotinamide]"
21,1.33,"CC(C)n1cc(C(=O)c2cncc(NC(=O)c3ccc4nccn4c3)c2)c2cncnc21 [Example 423, Imidazo[1,2-a]pyridine-6-carboxylicacid [5-(7-isopropyl-7H-pyrrolo[2,3-d]pyrimidine-5-carbonyl)-pyridin-3-yl]amide]"
22,4.31,"CC(C)n1cc(C(=O)c2cncc(NC(=O)c3nc[nH]n3)c2)c2cncnc21 [Example 424, 1H-1,2,4-Triazole-3-carboxylic acid[5-(7-isopropyl-7H-pyrrolo[2,3-d]pyrimidine-5-carbonyl)-pyridin-3-yl]-amide]"
23,0.796,"COc1ccc(C(=O)Nc2cncc(C(=O)c3cn(C(C)C)c4ncncc34)c2)nc1 [Example 425, 5-Methoxy-pyridine-2-carboxylic acid [5-(7-isopropyl-7H-pyrrolo[2,3-d]pyrimidine-5-carbonyl)-pyridin-3-yl]-amide]"
24,0.228,"CC(C)n1cc(C(=O)c2cncc(NC(=O)c3cnnc4ccccc34)c2)c2cncnc21 [Example 426, Cinnoline-4-carboxylic acid [5-(7-isopropyl-7H-pyrrolo[2,3-d]pyrimidine-5-carbonyl)-pyridin-3-yl]-amide]"
